Measurements as given in PubChem BioAssay AID2060341 (Molecular Pharmacology Branch, DTP, NCI, 2025).
Values joined by “and” are separate entries in the source; they are usually repeats but may differ in a detail not shown here. Equal entries are not always repeated.

System: 327498-153-R-J2-PDC multicell spheroid viability
Test: Anticancer human tumor 327498-153-R-J2-PDC patient-derived uterine carcinosarcoma cell line growth inhibition [IpAb]
Settings: for viability, T/C: stronger effect = lower value
Description: Combinatorial screen of targeted agents with ipatasertib and abemaciclib in multi-cell type tumor spheroids
A high-throughput screen of multi-cell type tumor spheroids was designed to identify active combinations of targeted small molecules and ipatasertib or abemaciclib. Complex spheroids include a stromal component modeled by human endothelial cells (HUVEC) and fibroblasts modeled by human mesenchymal stem cells (MSCs). The concentration ranges selected for each drug and investigational agent were based upon clinically achievable concentrations if the clinical Cmax of the agent was known.
Compounds. The drugs and investigational agents: ipatasertib (NSC767898), abemaciclib(NSC768073), selumetinib (NSC741078), trametinib (758246), adavosertib (NSC754352), everolimus (NSC733504), sapanisertib (NSC764658), vemurafenib (NSC761431), venetoclax (NSC766270), copanlisib (NSC809693), apelisib (NSC765974), palbociblib (NSC758247), vemurafenib (NSC761431), dabrafenib (NSC764134), ravoxertinib (NSC781343), BMS-387032 (NSC767048), sotorasib (NSC818433), talazoparib (NSC767125) and afursertib (NSC778305), were obtained from the National Cancer Institute (NCI) Developmental Therapeutics Program Chemical Repository. The FDA-approved anticancer drug set is available from the NCI Developmental Therapeutics Program. […] The stock solutions were prepared in dimethyl sulfoxide (DMSO, Sigma-Aldrich, St. Louis, MO, cat. D2650) at 800-fold the tested concentration and stored at -70 degrees C prior to their use. All drugs and investigational agents were tested over a range starting from a high concentration at or near the clinical Cmax and decreasing in half-log increments. If the clinical Cmax for an agent had not been determined, the highest concentration tested was 10 microM.
NCI60 Cell Culture. NCI60 cell lines were obtained from the NCI Developmental Therapeutics Program Tumor Repository. For each lot of cells, the Repository performed Applied Biosystems AmpFLSTR Identifiler testing with PCR amplification to confirm consistency with the published Identifier STR profile for each cell line. Cells were kept in continuous culture for no more than 20 passages. The optimal seeding densities for each of the cell lines at each time point assessed were determined prior to performing the concentration response studies. Briefly, the NCI60 human tumor lines were grown as monolayers in RPMI 1640 medium supplemented with 10% FBS and 2 mmol/L L-glutamine.
An additional 9 lines were from the NCI60 cell line panel including MDA-MB-231 breast carcinoma, MDA-MB-468 breast carcinoma, MCF7 breast carcinoma, Hs578T breast carcinoma, MALME-3M melanoma, SK-MEL-2 melanoma, SK-OV-3 ovarian carcinoma, DU-145 prostate carcinoma, PC-3 prostate carcinoma, all cell lines along with major genetic alterations are listed on Table 2. Pooled donor human umbilical vein endothelial cells (HUVEC, Lonza, cat. CC-2519) and human mesenchymal stem cells (hMSC, Lonza, cat. PT-2501) were purchased from Lonza (Walkersville, MD).
PDMR cell lines were grown in complete medium (DC medium): Dulbecco's modified Eagle's medium (DMEM)/F12 supplemented with 5% fetal bovine serum (FBS), 2 mM L-glutamine, 100 U/mL penicillin and 100 µg/ml streptomycin, 0.4 µg/ml hydrocortisone, 10 ng/ml epidermal growth factor (EGF) recombinant human protein, 24 µg/mL adenine, and 0.1 mg/mL primocin. During culture from frozen stock vials, PDMR cells were cultured in the same medium containing 10 µM Y-27632 (see Table 3). The PDCs were cultured in complete DMEM/F12 media without 10 microM Y-27632 dihydrochloride for at least two passages prior to the screen. The pooled donor HUVEC and hMSC were cultured in endothelial cell growth medium 2 (PromoCell, Heidelberg, Germany, cat. C-22011) and mesenchymal stem cell growth medium 2 (PromoCell, cat. C-28009), respectively. For all experiments, HUVEC and hMSC were used at passages </=5.
[…]

[1] = curve of first compound, second compound 0.1 µM
[2] = curve of first compound, second compound 0.316 µM
[3] = curve of first compound, second compound 1 µM
[4] = curve of first compound, second compound 3.16 µM
[5] = curve of first compound, second compound 10 µM
[6] = second compound 0.1 µM, first compound 0.00316 µM
[7] = second compound 0.1 µM, first compound 0.01 µM
[8] = second compound 0.1 µM, first compound 0.0316 µM
[9] = second compound 0.1 µM, first compound 0.1 µM
[10] = second compound 0.316 µM, first compound 0.00316 µM
[11] = second compound 0.316 µM, first compound 0.01 µM
[12] = second compound 0.316 µM, first compound 0.0316 µM
[13] = second compound 0.316 µM, first compound 0.1 µM
[14] = second compound 1 µM, first compound 0.00316 µM
[15] = second compound 1 µM, first compound 0.01 µM
[16] = second compound 1 µM, first compound 0.0316 µM
[17] = second compound 1 µM, first compound 0.1 µM
[18] = second compound 3.16 µM, first compound 0.00316 µM
[19] = second compound 3.16 µM, first compound 0.01 µM
[20] = second compound 3.16 µM, first compound 0.0316 µM
[21] = second compound 3.16 µM, first compound 0.1 µM
[22] = second compound 10 µM, first compound 0.00316 µM
[23] = second compound 10 µM, first compound 0.01 µM
[24] = second compound 10 µM, first compound 0.0316 µM
[25] = second compound 10 µM, first compound 0.1 µM
[26] = second compound 0.1 µM, first compound 0.316 µM
[27] = second compound 0.1 µM, first compound 1 µM
[28] = second compound 0.316 µM, first compound 0.316 µM
[29] = second compound 0.316 µM, first compound 1 µM
[30] = second compound 1 µM, first compound 0.316 µM
[31] = second compound 1 µM, first compound 1 µM
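Note: spheroids exposed to agents for 7 days.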
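Throughout, for viability, T/C: 100% = DMSO vehicle control viability.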

`Cn1ncnc1[C@H]1c2n[nH]c(=O)c3cc(F)cc(c23)N[C@@H]1c1ccc(F)cc1` + CC(C)NCC(C(=O)N1CCN(c2ncnc3c2C(C)CC3O)CC1)c1ccc(Cl)cc1 gave an IC50 [1] of 23.7 nM, an IC50 [2] of 8.7 nM and an IC50 [3] of 1.57 nM. The IC50 [4] was 0.58 nM, the IC50 [5] was < 0.316 nM and the viability, T/C (second compound 0.1 µM, first compound 0.000316 µM) was 94.7%. The viability, T/C (second compound 0.1 µM, first compound 0.001 µM) was 93.1%, the viability, T/C [6] was 83.7% and the viability, T/C [7] was 69.7%. The viability, T/C [8] was 43.1%, the viability, T/C [9] was 25.1% and the viability, T/C (second compound 0.316 µM, first compound 0.000316 µM) was 74.5%. For the same molecule, the viability, T/C (second compound 0.316 µM, first compound 0.001 µM) was 71.6%, the viability, T/C [10] was 64% and the viability, T/C [11] was 47.8%. The viability, T/C [12] was 31.1%, the viability, T/C [13] was 20.6% and the viability, T/C (second compound 1 µM, first compound 0.000316 µM) was 60%. For the same molecule, the viability, T/C (second compound 1 µM, first compound 0.001 µM) was 57.8%, the viability, T/C [14] was 39.7% and the viability, T/C [15] was 36.6%. The viability, T/C [16] was 25.8%, the viability, T/C [17] was 14.7% and the viability, T/C (second compound 3.16 µM, first compound 0.000316 µM) was 48.7%. For the same molecule, the viability, T/C (second compound 3.16 µM, first compound 0.001 µM) was 53.4%, the viability, T/C [18] was 37.8% and the viability, T/C [19] was 26.7%. For the same molecule, the viability, T/C [20] was 21.1%, the viability, T/C [21] was 12.8% and the viability, T/C (second compound 10 µM, first compound 0.000316 µM) was 39%. The viability, T/C (second compound 10 µM, first compound 0.001 µM) was 35.2%, the viability, T/C [22] was 26.9% and the viability, T/C [23] was 20.7%. The viability, T/C [24] was 14.8% and the viability, T/C [25] was 10.4%.

For `COc1c(OCCCN2CCOCC2)ccc2c3n(c(=NC(=O)c4cnc(N)nc4)nc12)CCN3` + CC(C)NCC(C(=O)N1CCN(c2ncnc3c2C(C)CC3O)CC1)c1ccc(Cl)cc1, the IC50 [1] was 45.9 nM, the IC50 [2] was 35.8 nM and the IC50 [3] was 4.21 nM. For the same molecule, the IC50 [4] was < 3.16 nM, the IC50 [5] was < 3.16 nM and the viability, T/C [6] was 81.6%. The viability, T/C [7] was 74.9%, the viability, T/C [8] was 58% and the viability, T/C [9] was 33.3%. For the same molecule, the viability, T/C [26] was 16.8%, the viability, T/C [27] was 9.2% and the viability, T/C [10] was 67.2%. The viability, T/C [11] was 67.5%, the viability, T/C [12] was 52.1% and the viability, T/C [13] was 27.5%. The viability, T/C [28] was 15.2%, the viability, T/C [29] was 8.52% and the viability, T/C [14] was 53.5%. It also gave a viability, T/C [15] of 39.2%, a viability, T/C [16] of 32.4% and a viability, T/C [17] of 21.1%. The viability, T/C [30] was 9.37%, the viability, T/C [31] was 7.49% and the viability, T/C [18] was 42.2%. The viability, T/C [19] was 33.3%, the viability, T/C [20] was 23.6% and the viability, T/C [21] was 15%. For the same molecule, the viability, T/C (second compound 3.16 µM, first compound 0.316 µM) was 8.38%, the viability, T/C (second compound 3.16 µM, first compound 1 µM) was 5.77% and the viability, T/C [22] was 34.2%. For the same molecule, the viability, T/C [23] was 25.9%, the viability, T/C [24] was 22.4% and the viability, T/C [25] was 11.9%. It also gave a viability, T/C (second compound 10 µM, first compound 0.316 µM) of 7.65% and a viability, T/C (second compound 10 µM, first compound 1 µM) of 4.58%.

Work on `COc1c(OCCCN2CCOCC2)ccc2c3n(c(=NC(=O)c4cnc(N)nc4)nc12)CCN3` + CCN1CCN(Cc2ccc(Nc3ncc(F)c(-c4cc(F)c5nc(C)n(C(C)C)c5c4)n3)nc2)CC1 yielded an IC50 (curve of first compound, second compound 0.01 µM) of 63.7 nM, an IC50 (curve of first compound, second compound 0.0316 µM) of 32.1 nM and an IC50 [1] of 13.9 nM. For the same molecule, the IC50 [2] was 5.63 nM, the IC50 [3] was 6.38 nM and the viability, T/C (second compound 0.01 µM, first compound 0.00316 µM) was 81.9%. The viability, T/C (second compound 0.01 µM, first compound 0.01 µM) was 78.5%, the viability, T/C (second compound 0.01 µM, first compound 0.0316 µM) was 70.9% and the viability, T/C (second compound 0.01 µM, first compound 0.1 µM) was 36.3%. It also gave a viability, T/C (second compound 0.01 µM, first compound 0.316 µM) of 16.8%, a viability, T/C (second compound 0.01 µM, first compound 1 µM) of 9.29% and a viability, T/C (second compound 0.0316 µM, first compound 0.00316 µM) of 70.9%. It also gave a viability, T/C (second compound 0.0316 µM, first compound 0.01 µM) of 60.8%, a viability, T/C (second compound 0.0316 µM, first compound 0.0316 µM) of 52.5% and a viability, T/C (second compound 0.0316 µM, first compound 0.1 µM) of 24.9%. It also gave a viability, T/C (second compound 0.0316 µM, first compound 0.316 µM) of 12.4%, a viability, T/C (second compound 0.0316 µM, first compound 1 µM) of 8.64% and a viability, T/C [6] of 63%. The viability, T/C [7] was 55.5%, the viability, T/C [8] was 37.4% and the viability, T/C [9] was 22.6%. For the same molecule, the viability, T/C [26] was 12.3%, the viability, T/C [27] was 9.1% and the viability, T/C [10] was 51.6%. For the same molecule, the viability, T/C [11] was 48.6%, the viability, T/C [12] was 38% and the viability, T/C [13] was 23.3%. The viability, T/C [28] was 15.3%, the viability, T/C [29] was 10.6% and the viability, T/C [14] was 51.9%. The viability, T/C [15] was 49.2%, the viability, T/C [16] was 39.8% and the viability, T/C [17] was 26.6%. The viability, T/C [30] was 17.7% and the viability, T/C [31] was 10.6%.

For `CC1(C)CCC(CN2CCN(c3ccc(C(=O)NS(=O)(=O)c4ccc(NCC5CCOCC5)c([N+](=O)[O-])c4)c(Oc4cnc5[nH]ccc5c4)c3)CC2)=C(c2ccc(Cl)cc2)C1`, the viability, T/C (compound 0.0316 µM) was 100% and 102%, the viability, T/C (compound 0.1 µM) was 104% and 105% and the viability, T/C (compound 0.316 µM) was 108% and 112%. The viability, T/C (compound 1 µM) was 102% and 108%, the viability, T/C (compound 3.16 µM) was 107% and 98.3% and the viability, T/C (compound 10 µM) was 7.23% and 3.16%. For the same molecule, the IC50 (curve of compound) was 6020 nM and 5680 nM.
